Measurements published in patent US20160095845A1, “COMPOSITION COMPRISING (S)-(-)-BENPROPERINE FOR PREVENTING OR TREATING CANCER” (KOREA RESEARCH INSTITUTE OF BIOSCIENCE AND BIOTECHNOLOGY, priority 2014, published 2016).

Legend:
[1] = system: DLD-1 cells, PRL-3 over-expressed colorectal cancer cell line; assay: Transwell cell migration assay; type: cell-based, human; details: for inhibition at 0.5 µM: DLD-1, 0.5 μM (FIG. 3b); for inhibition at 0.5 µM / inhibition at 5 µM: compared to DMSO-treated control; for inhibition at 5 µM: DLD-1, 5 μM (FIG. 3a)
Description: (§1) To analyze inhibitory activity against the migration and invasion of (S)-(−)-benproperine cancer cells, a cell migration and invasion assay was caned out using DLD-1 cells (ATCC-CCL-221), a PRL-3 over-expressed colorectal cancer cell line, using a transwell as described below.
(§2) First, DLD-1 cells (ATCC-CCL-221) were allowed to grow to about 90% in a culturing plate containing an RPMI medium, then removed from the medium and washed with PBS. The washed cells were treated with trypsin-EDTA and cultured in a CO2 incubator at 37° C. for […] to detach the cells. Then an RPMI medium containing 10% FBS was added thereto, and the cells were collected in a Falcon tube and centrifuged to remove the medium. The thus-obtained cells were charged with an FBS-free RPMI medium and centrifuged to remove the medium, and these step were repeated twice. The thus-obtained cells were charged with an FBS-free RPMI medium and then suspended to measure the number of cells using a hemocytometer.
(§3) Thereafter, the transwell was placed on top of a 24-well plate and charged with cells of 8×10^4 cell/200 The transwell was charged with 500 μL of an FBS-free RPMI medium containing the (S)-(−)-benproperine, prepared in Example 1, through the gap, and cultured in a CO2 incubator at 37° C. for 12 hours to 16 hours. After culturing, the transwell was turned upside down on a hand towel to remove the medium, then each well of the 24-well plate was charged with 500 μL of crystal violet (5 mg/mL in 20% MeOH). The transwell was placed back on top of the 24-well plate and incubated in a CO2 incubator for 30 minutes. The stained transwell was washed with PBS and turned upside down on a hand towel to let the remaining solution infiltrate into the hand towel. A region where the cells had not moved was labeled as the top of a film by placing a cover slip on top of the film, and the cells that had not moved were wiped off with a cotton swab. A small amount of nail polish was applied to the edge of the cover slip, and a slide glass was placed on top to fix the cover slip. The thus-prepared sample was photographed using an inverted microscope (TE 300, Nikon, Japan) with a digital camera installed, and the number of migrated cells was calculated.
Subsequently, cell migration inhibition was calculated via Mathematical Formula 1 shown below.
(§4) According to the Mathematical Formula 1 above, “the number of migrated cells in sample-treated group” refers to a number of migrated cells measured after treating DLD-1 with (S)-(−)-benproperine (S-Benp) prepared in Example 1, (R)-(+)-benproperine (R-Benp) prepared in Comparative Example 1, or a mixed racemate having a 1:1 weight ratio of (S)-(−)-benproperine to (R)-(+)-benproperine, and “the number of migrated cells in control group” refers to a number of migrated cells measured after treating DLD-1 with 1% dimethyl sulfoxide (DMSO) alone, instead of benproperine.

[2] = system: DLD-1 cells, PRL-3 over-expressed colorectal cancer cell line; assay: Transwell cell invasion assay; type: cell-based; details: Homo sapiens; for inhibition at 1 µM: DLD-1, 1 μM (FIG. 5b); for inhibition at 1 µM / inhibition at 5 µM: compared to DMSO-treated control; for inhibition at 2 µM: DLD-1, 2 μM (FIG. 5b); for inhibition at 5 µM: DLD-1, 5 μM (FIG. 5a)
Description: as §1, §2, §3, §4

[3] = Acute toxicity experiment of oral administration on rats; details: SD, in vivo, 1000 mg/kg; rat, oral; read-out: minimum lethal oral dose (LD50)
Description: (§5) 6-week-old specific pathogen free SD type rats were divided into groups, where each group contains two rats. The (S)-(−)-benproperine, prepared in Example 1, was dissolved in water for injection, and orally administered to each rat once at a volume of 1000 mg/kg.

SD type rats = assay: as above; details: rat, in vivo, po, 1000 mg/kg
Description: as §5

MCF10A cells = assay: Transwell cell migration assay, normal cells; type: cell-based; details: 10 μM (FIG. 4)
normal cells of MCF10A = assay: Cytotoxicity assay (WST-1); type: cell-based; details: 5 μM, 48 hours
Description: (§6) To verify the cytotoxicity of (S)-(−)-benproperine, prepared in Example 1, DLD-1 cells (ATCC-CCL-221), a human colorectal cancer cell line, AsPc-1′ cells (ATCC-CRL-1682), a pancreatic cancer cell line, B16-BL6 cells (ATCC-CRL-6475), a melanoma cell line, and normal cells of MCF10A (ATCC-CRL-10317) were cultured in an RPM medium containing 10% fetal bovine serum (FBS) while maintaining a temperature at 37° C. and 5% CO2, and the cells were then detached from the medium using 0.05% trypsin-EDTA. Each well of a 96-well plate including the medium containing 10% FBS was inoculated with 410^3 cells, calculated with a hemocytometer, and the cells were cultured in an incubator containing 5% CO2 at 37° C.
(§7) After 24 hours, the medium of each well was replaced with a new medium containing a control group (0.1% DMSO) and 5 μM of benproperine, prepared in either of Example 1 or Comparative Example 1. The cells in the new media were then cultured in an incubator containing 5% CO2 at 37° C. for 48 hours. Each well was then charged with 10 μL of WST-1 (Roche), culturing was continued for 2 hours, and absorbance was measured at 450 nm by ELISA Reader (Bio-Rad).

[4] = system: cancer cells (DLD-1, AsPc-1, B16-BL6); assay: Cytotoxicity assay (WST-1); type: cell-based; details: 5 μM, 48 hours
Description: as §6, §7

SMILES	inhibition at 0.5 µM ([1]; Homo sapiens) [%]	inhibition at 2 µM ([1]; Homo sapiens, DLD-1, 2 μM (FIG. 3b)) [%]	inhibition at 5 µM ([1]; Homo sapiens) [%]	inhibition at 1 µM [2] [%]	inhibition at 2 µM [2] [%]	inhibition at 5 µM [2] [%]	highest tested oral dose (no deaths) [3] [mg/kg]	animal death (SD type rats)	clinical symptoms (SD type rats)	toxicity in weight fluctuation, hematological and blood biochemical examinations, post-mortem reports (SD type rats)	inhibitory activity against cell migration relative to the racemate ([1]; DLD-1, 52% at 1 μM vs racemate 53% at 2 μM)	inhibition at 1 µM ([1]; Homo sapiens, DLD-1, 1 μM (FIG. 3b)) [%]	inhibition of migration of normal cells (MCF10A cells)	cytotoxicity (normal cells of MCF10A)	cytotoxicity [4]
CC(COc1ccccc1Cc1ccccc1)N1CCCCC1 (racemic) [racemate, 1-[1-(2-benzylphenoxy)propan-2-yl]piperidine, reference compound]	3	53	71	21	36	73									
C[C@@H](COc1ccccc1Cc1ccccc1)N1CCCCC1 [(S)-(−)-benproperine]	32		89	36	57	90	1000	none died	showed noteworthy clinical symptoms	nor showed any toxicity	twice as much inhibitory activity against the cell migration as the racemate	52	did not inhibit the migration	did not exhibit the cytotoxicity	did not exhibit the cytotoxicity
